According to patent US8217013B2, “Polyene diester antibiotics” (priority 2007, dated 2012):

Tests used:
Assay in all cases: Test of antibacterial activity in vitro (bacteria-inhibition zone)
Assay type in all cases: cell-based
[1] = tested on: Candida albicans
Source text: (§1) Test of Antibacterial Activity In Vitro
(§2) Experiment drugs: the polyene diester compounds prepared by examples 1-12
(§3) Control drugs: amphotericin B (standard product) • mycostatin (standard product) • natamycin (standard product)
2.1 Preparation of Candida albicans suspension: PHARMACOPOEIA OF THE PEOPLES REPUBLIC OF CHINA, second part, 2005 edition, appendix p 81-84.
(§4) Taking appropriate amount of the above mentioned amphotericin B, mycostatin, natamycin and the polyene diester compounds prepared by examples 1-8 and 10-12, dissolving in a little dimethyl sulfoxide respectively, using pH7 phosphate buffer to dilute into solution which is equivalent to contain amphotericin B, mycostatin, natamycin 280 Units per milliliter, taking 1 ml and using pH7 phosphate buffer to quantitatively dilute into solution which is equivalent to contain amphotericin B 1.4 μg/ml and 2.8 μg/ml, and is equivalent to contain 5.6 μg/ml of mycostatin and natamycin.
(§5) In addition, preparing the solution according to the same method, adding 40% defibered sheep serum, using pH7 phosphate buffer to quantitatively dilute into unit solution which is equivalent to contain amphotericin B 1.4 μg/ml and 2.8 μg/ml, and is equivalent to contain 5.6 μg/ml of mycostatin and natamycin. Testing according to PHARMACOPOEIA OF THE PEOPLES REPUBLIC OF CHINA, second part, 2005 edition, appendix XIA The Antibiotics Microorganism Test.
(§6) Medium: Improved Martin Agar Medium, PHARMACOPOEIA OF THE PEOPLES REPUBLIC OF CHINA, second part, 2005 edition, appendix p 84.
Test method: Double-plate counting method; […] bacteria bed 15 ml to replace the double layers, culture temperature: 37° C., time: 24 h; strain concentration: 1% […]

[2] = tested on: Saccharomyces cerevisiae
Source text: as §1, §2, §3
2.2 Preparation of Saccharomyces cerevisiae suspension: PHARMACOPOEIA OF THE PEOPLES REPUBLIC OF CHINA, second part, 2005 edition, appendix p 80, p 83.
as §4, §5, §6
(§7) Test method: Double-plate counting method; […] bacteria bed 15 ml to replace the double layers, culture temperature: 37° C., time: 24 h; strain concentration: 1%
(§8) Medium: Modified Martin Broth Medium

[3] = tested on: Candida mycoderma
Source text: as §1, §2, §3
2.3 Preparation of Candida mycoderrna suspension: the method is as same as preparation of Saccharomyces cerevisiae suspension
as §4, §5, §6, §7, §8

[4] = 2.8 μg/ml after conversion, no serum
[5] = 2.8 μg/ml after conversion, serum added (40% defibered sheep serum)
[6] = 5.6 μg/ml after conversion, no serum
[7] = 5.6 μg/ml after conversion, serum added (40% defibered sheep serum)

Molecule	diameter of the bacteria-inhibition zone, Candida albicans 0 h [1, 4]	diameter of the bacteria-inhibition zone, Candida albicans 0 h [1, 5]	diameter of the bacteria-inhibition zone, Candida albicans 6 h [1, 4]	diameter of the bacteria-inhibition zone, Candida albicans 6 h [1, 5]	diameter of the bacteria-inhibition zone, Candida albicans 24 h [1, 4]	diameter of the bacteria-inhibition zone, Candida albicans 48 h [1, 4]	diameter of the bacteria-inhibition zone, Saccharomyces cerevisiae 0 h [2, 4]	diameter of the bacteria-inhibition zone, Saccharomyces cerevisiae 0 h [2, 5]	diameter of the bacteria-inhibition zone, Saccharomyces cerevisiae 6 h [2, 4]	diameter of the bacteria-inhibition zone, Saccharomyces cerevisiae 24 h [2, 4]	diameter of the bacteria-inhibition zone, Saccharomyces cerevisiae 48 h [2, 4]	diameter of the bacteria-inhibition zone, Candida mycoderma 0 h [3, 4]	diameter of the bacteria-inhibition zone, Candida mycoderma 0 h [3, 5]	diameter of the bacteria-inhibition zone, Candida mycoderma 6 h [3, 4]	diameter of the bacteria-inhibition zone, Candida mycoderma 24 h [3, 4]	diameter of the bacteria-inhibition zone, Candida mycoderma 48 h [3, 4]	further results
CC(OC(=O)OC1CCCCC1)OC(=O)C1C(O)CC2(O)CC(O)CC(O)C(O)CCC(O)CC(O)CC(=O)OC(C)C(C)C(O)C(C)C=CC=CC=CC=CC=CC=CC=CC(OC3OC(C)C(O)C(N)C3O)CC1O2 (centres unmarked) [amphotericin B cyclohexyloxycarbonyloxyethyl ester]	+ (7-9 mm: +)	+ (7-9 mm: +)	+ (7-9 mm: +)	++ (9-12 mm: ++)	+ (7-9 mm: +)	+ (7-9 mm: +)	++ (9-12 mm: ++)	++ (9-12 mm: ++)	++ (9-12 mm: ++)	++ (9-12 mm: ++)	++ (9-12 mm: ++)	++ (9-12 mm: ++)	++ (9-12 mm: ++)	++ (9-12 mm: ++)	++ (9-12 mm: ++)	++ (9-12 mm: ++)	
amphotericin B-1, 3-2H-3-oxo-1-isobenzofuran ester	+ (7-9 mm: +)	+ (7-9 mm: +)	+ (7-9 mm: +)	++ (9-12 mm: ++)	+ (7-9 mm: +)	+ (7-9 mm: +)	++ (9-12 mm: ++)	++ (9-12 mm: ++)	++ (9-12 mm: ++)	++ (9-12 mm: ++)	++ (9-12 mm: ++)	++ (9-12 mm: ++)	++ (9-12 mm: ++)	++ (9-12 mm: ++)	++ (9-12 mm: ++)	++ (9-12 mm: ++)	
CC(C)OC(=O)OC(C)OC(=O)C1C(O)CC2(O)CC(O)CC(O)C(O)CCC(O)CC(O)CC(=O)OC(C)C(C)C(O)C(C)C=CC=CC=CC=CC=CC=CC=CC(OC3OC(C)C(O)C(N)C3O)CC1O2 (centres unmarked) [amphotericin B isopropoxycarbonyloxyethyl ester]	++ (9-12 mm: ++)	++ (9-12 mm: ++)	++ (9-12 mm: ++)		++ (9-12 mm: ++)	++ (9-12 mm: ++)	+ (7-9 mm: +)	++ (9-12 mm: ++)	+ (7-9 mm: +)	+ (7-9 mm: +)	+ (7-9 mm: +)	++ (9-12 mm: ++)	++ (9-12 mm: ++)	++ (9-12 mm: ++)	++ (9-12 mm: ++)	++ (9-12 mm: ++)	
Cc1oc(=O)oc1COC(=O)C1C(O)CC2(O)CC(O)CC(O)C(O)CCC(O)CC(O)CC(=O)OC(C)C(C)C(O)C(C)C=CC=CC=CC=CC=CC=CC=CC(OC3OC(C)C(O)C(N)C3O)CC1O2 (centres unmarked) [amphotericin B-5-methyl-1,3-dioxol-2-one-4-methyl ester]	++ (9-12 mm: ++)	++ (9-12 mm: ++)	++ (9-12 mm: ++)		++ (9-12 mm: ++)	++ (9-12 mm: ++)	++ (9-12 mm: ++)	++ (9-12 mm: ++)	++ (9-12 mm: ++)	++ (9-12 mm: ++)	++ (9-12 mm: ++)	++ (9-12 mm: ++)	++ (9-12 mm: ++)	++ (9-12 mm: ++)	++ (9-12 mm: ++)	++ (9-12 mm: ++)	
mycostatin ethyl acetate																	diameter of the bacteria-inhibition zone, Candida albicans 0 h [1, 6]: + (7-9 mm: +); diameter of the bacteria-inhibition zone, Candida albicans 0 h [1, 7]: + (7-9 mm: +); diameter of the bacteria-inhibition zone, Candida albicans 6 h [1, 6]: + (7-9 mm: +); diameter of the bacteria-inhibition zone, Candida albicans 6 h [1, 7]: + (7-9 mm: +); diameter of the bacteria-inhibition zone, Candida albicans 24 h [1, 6]: + (7-9 mm: +); diameter of the bacteria-inhibition zone, Candida albicans 24 h [1, 7]: + (7-9 mm: +); diameter of the bacteria-inhibition zone, Candida albicans 48 h [1, 6]: + (7-9 mm: +); diameter of the bacteria-inhibition zone, Candida albicans 48 h [1, 7]: + (7-9 mm: +); diameter of the bacteria-inhibition zone, Saccharomyces cerevisiae 0 h [2, 6]: ++ (9-12 mm: ++); diameter of the bacteria-inhibition zone, Saccharomyces cerevisiae 0 h [2, 7]: ++ (9-12 mm: ++); diameter of the bacteria-inhibition zone, Saccharomyces cerevisiae 6 h [2, 6]: ++ (9-12 mm: ++); diameter of the bacteria-inhibition zone, Saccharomyces cerevisiae 24 h [2, 6]: ++ (9-12 mm: ++); diameter of the bacteria-inhibition zone, Saccharomyces cerevisiae 48 h [2, 6]: ++ (9-12 mm: ++); diameter of the bacteria-inhibition zone, Candida mycoderma 0 h [3, 6]: ++ (9-12 mm: ++); diameter of the bacteria-inhibition zone, Candida mycoderma 0 h [3, 7]: ++ (9-12 mm: ++); diameter of the bacteria-inhibition zone, Candida mycoderma 6 h [3, 6]: ++ (9-12 mm: ++); diameter of the bacteria-inhibition zone, Candida mycoderma 24 h [3, 6]: ++ (9-12 mm: ++); diameter of the bacteria-inhibition zone, Candida mycoderma 48 h [3, 6]: ++ (9-12 mm: ++)
